The text below walks through data of US9145351B2, “Azole derivatives, methods for producing the same, intermediate thereof, agro-horticultural agents” (KUREHA CORPORATION, priority 2009, dated 2015).

Read-outs that look alike come from different tables or passages of the source. Where only a bound is given, the exact number is not on record here.

Holding throughout (assay type): cell-based
Assay [1] deals with Rhynchosporium secalis. Description: Plate medium fungicidal assay, barley leaf blotch R.sec (Experimental Example 5). To be noted: for inhibition at 5 µg/mL / inhibition at 50 µg/mL: Rhynchosporium secalis. As to the method: (§1) In this Experimental Example, the fungicidal effects of the inventive compounds on various phytopathogenic fungi for plants and hazardous microorganism for industrial materials were examined by the methods described below. Each inventive compound was dissolved in 2 ml of dimethyl sulfoxide. 0.6 ml of this solution was added to 60 nil of a PDA medium (potato dextrose agar medium) at about 60 degrees C., which was mixed thoroughly in a 100-ml conical flask, and poured into a dish, where it was solidified, thereby obtaining a plate medium containing the inventive compound at 50 mg/L and 5 mg/L. On the other hand, a subject microorganism previously cultured on a plate medium was cut out using a cork borer whose diameter was 4 mm, and inoculated to the test compound-containing plate medium described above. […] The growth degree of the microorganism on the test compound-containing plate medium thus observed was compared with the growth degree of the microorganism in the untreated group, and % mycelial growth inhibition was calculated by the following equation. R=100(dc−dt)/dc wherein R=% mycelial extension inhibition, dc=flora diameter in untreated plate, dt=flora diameter in treated plate. The results obtained as described above were evaluated as one of the 5 grades according to the following criteria. […] Barley leaf blotch (Rhynchosporium secalis) R.sec

Assay [2] concerns Pseudocercoporella herpotrichoides. As to the kind of experiment: Plate medium fungicidal assay, wheat eye spot P.h (Experimental Example 5). As to the method:
as §1, with “Wheat eye spot (Pseudocercoporella herpotrichoides) P.h” for “Barley leaf blotch (Rhynchosporium secalis) R.sec”

Assay [3] concerns Phaeosphaeria nodorum. Description: Plate medium fungicidal assay, wheat Septoria nodorum blotch P.n (Experimental Example 5). The following applies: for inhibition at 5 µg/mL / inhibition at 50 µg/mL: Parastagonospora nodorum. Here is the method: as §1, with “Wheat Septoria nodorum” for “Barley leaf”, “(Phaeosphaeria nodorum) P.n” for “(Rhynchosporium secalis) R.sec”
Assay [4] relates to Botritis cinerea. Description: Plate medium fungicidal assay, gray mold B.c (Experimental Example 5). Here is the method: as §1, with “Gray mold (Botritis cinerea) B.c” for “Barley leaf blotch (Rhynchosporium secalis) R.sec”
The subject of assay [5] is Fusarium oxysporum. Description: Plate medium fungicidal assay, cucumber fusarium wilt F.c (Experimental Example 5). The following applies: for inhibition at 5 µg/mL / inhibition at 50 µg/mL: Fusarium oxysporum. As to the method: as §1, with “Cucumber fusarium wilt (Fusarium oxysporum) F.c” for “Barley leaf blotch (Rhynchosporium secalis) R.sec”
[6] abbreviates: plate medium containing compound at 5 mg/L, read-out: Growth inhibition grade, R.sec.
[7] abbreviates: plate medium containing compound at 50 mg/L, read-out: Growth inhibition grade, R.sec.
[8] abbreviates: plate medium containing compound at 5 mg/L, read-out: Growth inhibition grade, P.h.
[9] abbreviates: plate medium containing compound at 50 mg/L, read-out: Growth inhibition grade, P.h.
Setting [10] is: plate medium containing compound at 5 mg/L, read-out: Growth inhibition grade, P.n.
Setting [11] is: plate medium containing compound at 50 mg/L, read-out: Growth inhibition grade, P.n.
Setting [12] is: plate medium containing compound at 5 mg/L, read-out: Growth inhibition grade, B.c.
Where [13] appears, read: plate medium containing compound at 50 mg/L, read-out: Growth inhibition grade, B.c.
Setting [14] is: plate medium containing compound at 5 mg/L, read-out: Growth inhibition grade, F.c.
The mark [15] stands for this setting: plate medium containing compound at 50 mg/L, read-out: Growth inhibition grade, F.c.
Where [16] appears, read: plate medium containing compound at 5 mg/L.
[17] abbreviates: plate medium containing compound at 50 mg/L.

The term inhibition denotes the change of the read-out against control, counted positive when it falls. Turning to `C[C@]1(CBr)CC[C@@H](Cc2ccc(Cl)cc2)[C@]1(O)Cn1cncn1` (racemic) [Compound I-25, (1RS,2SR,5SR)-2-bromomethyl-5-(4-chlorobenzyl)-2-methyl-1-(1H-1,2,4-triazol-1-ylmethyl)cyclopentanol], the inhibition at 5 µg/mL was greater than 80% in assay [1] (setting [6]); 40 to 60% in assay [2] (setting [8]); 60 to 80% in assay [3] (setting [10]); greater than 80% in assay [4] (setting [12]); greater than 80% in assay [5] (setting [14]). In addition, the inhibition at 50 µg/mL in assay [1] (setting [7]), in assay [2] (setting [9]), in assay [3] (setting [11]), in assay [4] (setting [13]) and in assay [5] (setting [15]) was greater than 80% in each case.

Turning to `C[C@]1(CCl)CC[C@@H](Cc2ccccc2F)[C@]1(O)Cn1cncn1` (relative stereo) [Compound I-86], the “Growth inhibition grade, R.sec” value in assay [1] (setting [16]) and in assay [1] (setting [17]) was 5 (% Mycerial growth inhibition of 80% or higher) in each case. Also, the “Growth inhibition grade, P.h” value in assay [2] (setting [16]) and in assay [2] (setting [17]) was 5 (% Mycerial growth inhibition of 80% or higher) each time. The “Growth inhibition grade, P.n” value in assay [3] (setting [16]) and in assay [3] (setting [17]) was 5 (% Mycerial growth inhibition of 80% or higher) throughout. For the same compound, the “Growth inhibition grade, B.c” value in assay [4] (setting [16]) and in assay [4] (setting [17]) was 5 (% Mycerial growth inhibition of 80% or higher) throughout. Also, the “Growth inhibition grade, F.c” value in assay [5] (setting [16]) and in assay [5] (setting [17]) was 5 (% Mycerial growth inhibition of 80% or higher) each time.

In the case of `C[C@]1(CCl)CC[C@@H](Cc2ccc(Cl)cc2)[C@]1(O)Cn1ccnc1` (racemic) [Compound I-244, (1RS,2SR,5SR)-5-(4-chlorobenzyl)-2-chloromethyl-2-methyl-1-imidazol-1-ylmethylcyclopentanol], the inhibition at 5 µg/mL in assay [1] (plate medium, 5 mg/L, read-out: growth inhibition grade R.sec) was greater than 80%; in assay [2] (plate medium, 5 mg/L, read-out: growth inhibition grade P.h), greater than 80%; in assay [3] (plate medium, 5 mg/L, read-out: growth inhibition grade P.n), greater than 80%; in assay [4] (plate medium, 5 mg/L, read-out: growth inhibition grade B.c) it was 60 to 80%; in assay [5] (plate medium, 5 mg/L, read-out: growth inhibition grade F.c), greater than 80%. Also, the inhibition at 50 µg/mL in assay [1] (plate medium, 50 mg/L, read-out: growth inhibition grade R.sec) is greater than 80%; in assay [2] (plate medium, 50 mg/L, read-out: growth inhibition grade P.h), greater than 80%; in assay [3] (plate medium, 50 mg/L, read-out: growth inhibition grade P.n), greater than 80%; in assay [4] (plate medium, 50 mg/L, read-out: growth inhibition grade B.c), greater than 80%; in assay [5] (plate medium, 50 mg/L, read-out: growth inhibition grade F.c), greater than 80%.

Consider `CC(Cl)=C[C@@]1(C)CC[C@@H](Cc2ccc(Cl)cc2)[C@]1(O)Cn1cncn1` (racemic) [Compound I-15, (1RS,2RS,5SR)-5-(4-chlorobenzyl)-2-(2-chloropropenyl)-2-methyl-1-(1H-1,2,4-triazol-1-ylmethyl)cyclopentanol], for which the inhibition at 5 µg/mL in assay [1] (setting [6]), in assay [2] (setting [8]), in assay [3] (setting [10]), in assay [4] (setting [12]) and in assay [5] (setting [14]) was greater than 80% throughout. For the same compound, the inhibition at 50 µg/mL in assay [1] (setting [7]), in assay [2] (setting [9]), in assay [3] (setting [11]), in assay [4] (setting [13]) and in assay [5] (setting [15]) was greater than 80% each time.

Take `O[C@]1(Cn2cncn2)[C@H](Cc2ccc(Cl)cc2)CC[C@@H]1C(F)(F)F` (racemic) [Compound I-65, (1RS,2SR,5SR)-5-(4-chlorobenzyl)-2-trifluoromethyl-1-(1H-1,2,4-triazol-1-ylmethyl)cyclopentanol]: the inhibition at 5 µg/mL in assay [1] (setting [6]) was in the range of 40 to 60%; in assay [2] (setting [8]), 40 to 60%; in assay [3] (setting [10]) it was 60 to 80%; in assay [4] (setting [12]), 60 to 80%; in assay [5] (setting [14]), 40 to 60%. Besides, the inhibition at 50 µg/mL in assay [1] (setting [7]), in assay [2] (setting [9]), in assay [3] (setting [11]), in assay [4] (setting [13]) and in assay [5] (setting [15]) was greater than 80% each time.

`C[C@@]1(CCl)CC[C@@H](Cc2cccc(Cl)c2)[C@]1(O)Cn1cncn1` (relative stereo) [Compound I-174]: the “Growth inhibition grade, R.sec” value in assay [1] (plate medium, 5 mg/L) is 5 (% Mycerial growth inhibition of 80% or higher); in assay [1] (plate medium, 50 mg/L), 5 (% Mycerial growth inhibition of 80% or higher). The “Growth inhibition grade, P.h” value in assay [2] (plate medium, 5 mg/L) is 5 (% Mycerial growth inhibition of 80% or higher); in assay [2] (plate medium, 50 mg/L), 5 (% Mycerial growth inhibition of 80% or higher). Besides, the “Growth inhibition grade, P.n” value is listed as 5 (% Mycerial growth inhibition of 80% or higher) in assay [3] (plate medium, 5 mg/L) and 5 (% Mycerial growth inhibition of 80% or higher) in assay [3] (plate medium, 50 mg/L). The “Growth inhibition grade, B.c” value in assay [4] (plate medium, 5 mg/L) is listed as 5 (% Mycerial growth inhibition of 80% or higher); in assay [4] (plate medium, 50 mg/L), 5 (% Mycerial growth inhibition of 80% or higher). For the same compound, the “Growth inhibition grade, F.c” value in assay [5] (plate medium, 5 mg/L) was 5 (% Mycerial growth inhibition of 80% or higher); in assay [5] (plate medium, 50 mg/L), 5 (% Mycerial growth inhibition of 80% or higher).
